Square brackets hold non-standard residues; d marks the D form. Peptide text beside a SMILES is read from it. * marks the point of attachment. Thz = O=C(O)[C@@H]1CSCN1; Cbz = O=C(OCc1ccccc1)*
Target: T1, prolyl endopeptidase (Bos taurus, UniProt Q9XTA2)
T1 construct: the enzyme purified from bovine brain; from tissue; host or cells: bovine brain
T1 sequence (Q9XTA2 1-710): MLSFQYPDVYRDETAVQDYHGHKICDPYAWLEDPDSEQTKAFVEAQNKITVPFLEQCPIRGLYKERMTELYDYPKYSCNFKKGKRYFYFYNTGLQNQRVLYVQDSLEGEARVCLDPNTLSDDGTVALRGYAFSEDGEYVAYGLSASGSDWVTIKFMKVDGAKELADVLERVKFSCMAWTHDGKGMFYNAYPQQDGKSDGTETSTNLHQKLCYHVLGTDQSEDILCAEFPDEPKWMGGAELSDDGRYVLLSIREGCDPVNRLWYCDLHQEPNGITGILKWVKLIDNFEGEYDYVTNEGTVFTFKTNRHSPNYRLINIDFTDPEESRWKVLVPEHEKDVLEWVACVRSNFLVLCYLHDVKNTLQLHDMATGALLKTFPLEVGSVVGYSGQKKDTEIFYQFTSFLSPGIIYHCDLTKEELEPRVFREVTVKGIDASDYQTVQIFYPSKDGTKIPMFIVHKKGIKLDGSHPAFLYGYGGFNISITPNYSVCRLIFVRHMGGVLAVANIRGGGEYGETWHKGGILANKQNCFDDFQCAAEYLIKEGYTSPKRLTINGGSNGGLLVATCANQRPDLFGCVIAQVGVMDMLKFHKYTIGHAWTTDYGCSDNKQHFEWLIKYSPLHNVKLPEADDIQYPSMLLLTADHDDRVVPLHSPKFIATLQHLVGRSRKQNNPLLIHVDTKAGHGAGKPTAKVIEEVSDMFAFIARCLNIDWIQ
Experiment: Inhibitory Effect for Prolyl Endopeptidase (enzyme purified from bovine brain)
Assay type: biochemical
Method: To 0.5 ml of the supernatant was added 0.5 ml of 0.1% sodium nitrite aqueous solution, and after 3 minutes, 0.5 ml of 0.5% ammonium sulfamate and 1 ml of 0.05% N-(1-naphthyl)ethylenediamine dihydrochloride in ethanol were further added . The mixture was left for 25 minutes at 37° C., and the absorbance was measured at 570 nm.
The unit of the enzyme activity (μmol/min/ml)=ΔOD×0.42×a dilution factor

Structure (SMILES) | IC50 [µM]
O=C([C@@H]1CSCN1C(=O)OCc1ccccc1)N1CCSC1 [Compound A, 3-[(R)-(-)-3-Benzyloxycarbonylthiazolidine-4-carbonyl]thiazolidine] | 0.00026
COC(=O)[C@@H]1CCCN1C(=O)[C@@H]1CSCN1C(=O)OCc1ccccc1 [Compound B, (S)-(-)-N-[(R)-(-)-3-Benzyloxycarbonylthiazolidine-4-carbonyl]pyrrolidine-2-carboxylic acid methyl ester] (Cbz-[Thz]-Pro-OMe) | 72
O=C([C@@H]1CSCN1C(=O)OCc1ccccc1)N1CCSCC1 [Compound F, N-[(R)-(-)-3-Benzyloxycarbonylthiazolidine-4-carbonyl]thiomorpholine] | 230
COC(=O)[C@@H]1CSCN1C(=O)[C@@H]1CSCN1C(=O)OCc1ccccc1 [Compound G, (R)-(-)-3-[(R)-(-)-3-Benzyloxycarbonylthiazolidine-4-carbonyl]thiazolidine-4-carboxylic acid methyl ester] (Cbz-[Thz]-[Thz]-OMe) | 0.21
O=C([C@@H]1CSCN1C(=O)CCc1ccccc1)N1CCSC1 [Compound H, 33-[(R)-(-)-3-(3-Phenylpropionyl)thiazolidine-4-carbonyl]thiazolidine] | 0.4
O=C([C@@H]1CSCN1C(=O)Cc1ccccc1)N1CCSC1 [Compound N, 3-[(R)-(-)-3-Phenylacetylthiazolidine-4-carbonyl]thiazolidine] | 0.0631
O=C([C@@H]1CSCN1C(=O)Cc1ccccc1)N1CCCC1 [Compound O, 1-[(R)-(-)-3-Phenylacetylthiazolidine-4-carbonyl]pyrrolidine] | 0.66
O=C([C@@H]1CSCN1C(=O)C=Cc1ccccc1)N1CCSC1 [Compound P, 3-[(R)-(-)-3-Cinnamoylthiazolidine-4-carbonyl]thiazolidine] | 3.24
O=C([C@@H]1CSCN1C(=O)C=Cc1ccccc1)N1CCCC1 [Compound Q, 1-[(R)-(-)-3-Cinnamoylthiazolidine-4-carbonyl]pyrrolidine] | 4.6
O=C([C@@H]1CSCN1C(=O)c1ccncc1)N1CCSC1 [Compound U, 3-[(R)-(-)-3-Isonicotinoylthiazoidine-4-carbonyl]thiazolidine] | 1.3
